Reference: US20240132458A1, “NLRP3 INFLAMMASOME SMALL-MOLECULE INHIBITOR FOR TREATMENT OF ALZHEIMER'S DISEASE” (AJOU UNIVERSITY INDUSTRY-ACADEMIC COOPERATION FOUNDATION, priority 2021, published 2024)
“Also recorded” adds a separate entry of the source. One block for each compound: values may come before it.

How the values were obtained:
NLRP3, NLRC4 = conditions: approximate inhibitory concentration, literature; cited from earlier work
NLRP3 [1] = conditions: approximate inhibitory concentration, literature; cited from earlier work
CYP1A2 = molecular target: T1, CYP1A2 (Homo sapiens, UniProt P05177); test: Cytochrome P450 inhibition; format: in vitro ADME; conditions: probe phenacetin (O-deethylation), pooled human liver microsomes 0.25 mg/mL, read-out: CYP inhibition (% at 10 μM) 1A2
T1 construct: pooled human liver microsomes were assayed at 0.25 mg/mL concentration; from tissue; host or cells: pooled human liver microsomes
T1 sequence (P05177 1-516): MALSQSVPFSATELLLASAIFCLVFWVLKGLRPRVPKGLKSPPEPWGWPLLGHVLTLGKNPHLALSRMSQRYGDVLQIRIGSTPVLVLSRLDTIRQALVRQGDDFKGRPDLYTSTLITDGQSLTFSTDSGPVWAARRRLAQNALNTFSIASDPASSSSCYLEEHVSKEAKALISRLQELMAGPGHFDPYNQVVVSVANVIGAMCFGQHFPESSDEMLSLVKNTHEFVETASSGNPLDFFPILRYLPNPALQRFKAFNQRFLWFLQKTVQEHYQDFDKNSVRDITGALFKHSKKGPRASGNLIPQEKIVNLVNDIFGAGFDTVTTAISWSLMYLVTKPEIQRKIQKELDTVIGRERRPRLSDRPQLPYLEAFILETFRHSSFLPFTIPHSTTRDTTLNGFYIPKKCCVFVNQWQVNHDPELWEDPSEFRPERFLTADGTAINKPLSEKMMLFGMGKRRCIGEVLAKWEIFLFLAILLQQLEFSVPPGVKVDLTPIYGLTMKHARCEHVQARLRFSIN
Experimental: (§1) The inhibitory effects of NIC7 and NIC7w on the metabolism of the five major P450 probe substrates were evaluated using a previously reported method (S. Seino, Diabetologia 55, 2096-2108 (2012)) with minor modifications. A cocktail of substrates (phenacetin O-deethylase, tolbutamide 4-hydroxylase, mephenytoin 4-hydroxylase, dextromethorphan O-demethylase, and midazolam 1′-hydroxylase) was used for five major P450 enzymes, CYP1A2, CYP2C9, CYP2C19, CYP2D6, and CYP3A4, respectively. NIC7 and NIC7w were prepared at a concentration of 10 mM in DMSO and dissolved in methanol at a concentration of 1 mM. In all experiments, the final concentration of an organic solvent (methanol) for cocktail incubation was set at 1.0% (v/v). Both NIC7 and NIC7w were used at 10 μM, and pooled human liver microsomes were assayed at 0.25 mg/mL concentration. The substrate cocktail solution was incubated with the microsomes for 5 min at 37° C. The reaction was initiated by adding an NADPH-generating system (the same as described in Examples 1-5) at 37° C. and 1300 rpm. The reaction was stopped at 10 min by the addition of cold acetonitrile containing carbamazepine as an internal standard at 20 ng/mL. After vortexing and centrifugation, the supernatant was analyzed with LC-MS/MS. All microsomal incubations were performed in triplicate.

CYP2C9 = molecular target: T2, CYP2C9 (Homo sapiens, UniProt P11712); test: Cytochrome P450 inhibition; format: in vitro ADME; conditions: for CYP enzyme selectivity of inhibition: five P450 enzymes, 10 μM; for inhibition at 10 min, 10 µM: probe tolbutamide (4-hydroxylation), pooled human liver microsomes 0.25 mg/mL, tolbutamide, read-out: CYP inhibition (% at 10 μM) 2C9
T2 construct: pooled human liver microsomes were assayed at 0.25 mg/mL concentration; from tissue; host or cells: pooled human liver microsomes
T2 sequence (P11712 whole entry): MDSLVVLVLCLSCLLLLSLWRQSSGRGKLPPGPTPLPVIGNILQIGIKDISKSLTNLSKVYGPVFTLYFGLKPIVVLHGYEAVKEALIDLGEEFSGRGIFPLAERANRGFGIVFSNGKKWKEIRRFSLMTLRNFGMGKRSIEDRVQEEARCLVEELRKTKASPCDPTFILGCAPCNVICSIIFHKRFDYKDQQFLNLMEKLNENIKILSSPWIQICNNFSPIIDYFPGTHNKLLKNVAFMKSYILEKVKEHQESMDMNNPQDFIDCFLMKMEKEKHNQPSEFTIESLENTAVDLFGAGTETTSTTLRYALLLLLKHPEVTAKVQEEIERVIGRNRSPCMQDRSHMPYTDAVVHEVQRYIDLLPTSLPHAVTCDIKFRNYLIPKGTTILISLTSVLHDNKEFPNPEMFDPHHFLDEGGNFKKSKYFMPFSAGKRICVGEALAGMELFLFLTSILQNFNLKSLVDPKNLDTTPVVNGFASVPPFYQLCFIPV
Experimental: as §1

CYP3A4 = molecular target: T3, CYP3A4 (Homo sapiens, UniProt P08684); test: Cytochrome P450 inhibition; format: in vitro ADME; conditions: probe midazolam (1′-hydroxylation), pooled human liver microsomes 0.25 mg/mL, read-out: CYP inhibition (% at 10 μM) 3A4
T3 construct: pooled human liver microsomes were assayed at 0.25 mg/mL concentration; from tissue; host or cells: pooled human liver microsomes
T3 sequence (P08684 whole entry): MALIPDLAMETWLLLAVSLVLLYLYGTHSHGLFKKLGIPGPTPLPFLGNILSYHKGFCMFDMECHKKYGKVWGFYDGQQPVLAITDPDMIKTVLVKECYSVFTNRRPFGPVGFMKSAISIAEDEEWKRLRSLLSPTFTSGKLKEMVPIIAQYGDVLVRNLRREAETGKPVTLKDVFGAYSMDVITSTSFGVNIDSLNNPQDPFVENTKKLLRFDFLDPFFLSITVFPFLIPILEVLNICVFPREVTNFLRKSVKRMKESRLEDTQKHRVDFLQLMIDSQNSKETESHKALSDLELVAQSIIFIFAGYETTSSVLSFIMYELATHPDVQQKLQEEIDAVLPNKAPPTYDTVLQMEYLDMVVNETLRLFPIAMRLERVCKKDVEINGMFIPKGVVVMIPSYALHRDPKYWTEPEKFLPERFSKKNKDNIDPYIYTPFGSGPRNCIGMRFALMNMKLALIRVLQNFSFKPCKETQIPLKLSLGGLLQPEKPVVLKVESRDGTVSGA
Experimental: as §1

CYP2D6 = molecular target: T4, CYP2D6 (Homo sapiens, UniProt P10635); test: Cytochrome P450 inhibition; format: in vitro ADME; conditions: probe dextromethorphan (O-demethylation), pooled human liver microsomes 0.25 mg/mL, read-out: CYP inhibition (% at 10 μM) 2D6
T4 construct: pooled human liver microsomes were assayed at 0.25 mg/mL concentration; from tissue; host or cells: pooled human liver microsomes
T4 sequence (P10635 whole entry): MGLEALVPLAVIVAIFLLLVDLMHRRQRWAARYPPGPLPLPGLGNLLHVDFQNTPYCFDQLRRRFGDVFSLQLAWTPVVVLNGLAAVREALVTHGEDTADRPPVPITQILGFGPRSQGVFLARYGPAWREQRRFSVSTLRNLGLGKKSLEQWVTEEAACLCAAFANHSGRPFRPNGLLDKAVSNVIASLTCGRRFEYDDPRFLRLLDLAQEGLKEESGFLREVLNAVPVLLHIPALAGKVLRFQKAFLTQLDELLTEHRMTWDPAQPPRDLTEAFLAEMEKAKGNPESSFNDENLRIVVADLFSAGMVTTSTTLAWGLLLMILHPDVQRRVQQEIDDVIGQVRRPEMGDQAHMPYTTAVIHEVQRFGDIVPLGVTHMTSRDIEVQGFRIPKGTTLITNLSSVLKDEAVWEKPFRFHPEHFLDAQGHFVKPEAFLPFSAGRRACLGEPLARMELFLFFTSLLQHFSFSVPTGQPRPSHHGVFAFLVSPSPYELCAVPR
Experimental: as §1

CYP2C19 = molecular target: T5, CYP2C19 (Homo sapiens, UniProt P33261); test: Cytochrome P450 inhibition; format: in vitro ADME; conditions: probe mephenytoin (4-hydroxylation), pooled human liver microsomes 0.25 mg/mL, read-out: CYP inhibition (% at 10 μM) 2C19
T5 construct: pooled human liver microsomes were assayed at 0.25 mg/mL concentration; from tissue; host or cells: pooled human liver microsomes
T5 sequence (P33261 whole entry): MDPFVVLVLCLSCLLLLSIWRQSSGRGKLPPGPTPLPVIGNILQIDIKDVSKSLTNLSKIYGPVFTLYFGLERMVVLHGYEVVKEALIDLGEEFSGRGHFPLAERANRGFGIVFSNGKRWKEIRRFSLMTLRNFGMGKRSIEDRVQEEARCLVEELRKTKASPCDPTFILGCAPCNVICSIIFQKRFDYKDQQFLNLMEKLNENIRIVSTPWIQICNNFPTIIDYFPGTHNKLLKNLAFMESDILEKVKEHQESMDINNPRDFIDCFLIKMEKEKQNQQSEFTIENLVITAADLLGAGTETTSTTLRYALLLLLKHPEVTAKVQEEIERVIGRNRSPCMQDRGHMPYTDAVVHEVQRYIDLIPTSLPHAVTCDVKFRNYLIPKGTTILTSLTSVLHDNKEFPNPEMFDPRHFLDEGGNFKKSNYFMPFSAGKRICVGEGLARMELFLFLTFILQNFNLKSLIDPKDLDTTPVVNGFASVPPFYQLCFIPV
Experimental: as §1

Body weight in AD model = format: in vivo, C57BL/6 mice; conditions: NIC7 100 nmol/g intraperitoneally; compared to the untreated mice
Experimental: (§2) 6-week-old male C57BL/6 mice (19 to 22 g) were used, and 5 mice per cage were bred in a feedlot. To create an AD model, experimental animals were administered isoflurane by inhalation, and then injected with Aβ1-42 (5 μL) using a Hamilton microsyringe with a 26-gauge needle. The AD model mice were trained for 20 minutes/mouse for 2 days before the experimental procedure, and then subjected to Y-maze tests and novel object recognition tests (for cognitive evaluation). Behavioral evaluation was performed 7 days after Aβ1-42 injection. The animals were subdivided into AD, NIC7-treated, vehicle (DMSO)-treated, donepezil-treated (positive control) and normal (no-disease) groups. Cognitive evaluation was performed on days 7, 14, 21 and 28 after injection.

Microsomal stability = format: in vitro ADME, human; conditions: for Microsomal stability (% at 30 min): Human liver microsomes 0.5 mg/mL, 1 μM compound, 37° C.
Experimental: Stock solutions of NIC7 and NIC7w were prepared at a concentration of 10 mM in DMSO, and were diluted to a concentration of 100 μM with 100% methanol as a working solution. These NIC7 and NIC7w solutions were diluted to a concentration of 1 μM with potassium phosphate buffer (pH 7.4), and then each solution was incubated with 0.5 mg/mL liver microsomes (human) at 37° C. for 5 minutes. The reaction was initiated by adding a NADPH-generating system (3.3 mM glucose-6-phosphate (G6P), 1.3 mM β-NADP^+, 3.3 mM MgCl2, and 0.4 U/mL glucose-6-phosphate dehydrogenase (G6PD)) at 37° C. The reaction was stopped at 0 and 30 minutes using cold acetonitrile containing carbamazepine as an internal standard at 20 ng/mL. After vortexing and centrifugation, the supernatant was analyzed with liquid chromatography with tandem mass spectrometry (LC-MS/MS). All microsomal assays were performed in duplicate.
After sample preparation, 0.1 mL acetonitrile containing 20 ng/mL internal standard was added to a 50 μL aliquot of each biological sample. After vortexing and centrifugation at 12,000 rpm for 10 minutes, 10 μL of the supernatant was analyzed with LC-MS/MS.
In the LC system, a reversed-phase C18 column (BEH C18, 2.1 mm×100 mm i.d., 1.7 μm; Waters, Ireland) was maintained at 4° C. The composition of the mobile phase was changed from 80% of 0.1% formic acid in water to 80% of 0.1% formic acid in acetonitrile for 3 minutes, and then switched to 80% of 0.1% formic acid in water for 3.1 minutes, and maintained at 0.5 at mL/min for 5 minutes. The analytes were monitored on an API5500 triple quadrupole mass spectrometer MS (AB Sciex, Foster City, CA) equipped with a turbo ion spray interface for electrospray ionization and operated in positive ion mode at 5.5 kV and 500° C. at 50 L/min of atomizing gas flow, 50 L/min of turbo ion-spray gas flow, 20 L/min of curtain gas flow, 5.5 kV of ring voltage and 5 Torr of collision gas (nitrogen) pressure. The mass transitions for NIC7, NIC7w and the internal standard were m/z 481.1→165.0 (collision energy, 45 eV), 453.1→165.0 (41.0 eV) and 236.9→194.0 (29 eV), respectively, in the multiple reaction monitoring mode.

[2] = test system: AD model mice (Aβ1-42 injected); test: Y-maze test in AD model (spatial working memory); format: in vivo, C57BL/6 mice; conditions: 3 days/week, vs vehicle-treated and untreated mice
Experimental: as §2
The alteration in spatial cognitive behavior was assessed using a Y-maze apparatus with three horizontal identical arms (35 cm long×15 cm high×5 cm wide) symmetrically arranged at 120° to each other. The evaluation was performed in the Y-maze test 7 days after Aβ injection. After introduction into the Y-maze, each animal was allowed to move freely for 2 minutes and then measured for 5 minutes. The test subjects tended to enter an arm different from the arm they had previously visited. The number of arm entries and triads was recorded to calculate the percentage of alternation. […]

[3] = test system: NLRP3 signaling pathway (IL-1β, caspase 1); test: Western blot of the NLRP3 signaling pathway; format: cell-based, human; conditions: 10 μM, PMA-differentiated THP-1, LPS/nigericin
Experimental: Cytoplasmic proteins were extracted using NE-PERTM Nuclear and Cytoplasmic Extraction Reagent (Thermo Fisher Scientific, Inc.), and the total-protein was measured using a Bicinchoninic (BCA) assay kit (Sigma-Aldrich Co.). The proteins were separated by SDS-PAGE and transferred to a membrane using a Mini-PROTEAN Tetra Cell and Mini Trans-Blot Electrophoretic Transfer Cell System (Bio-Rad Laboratories, Hercules, CA, USA). The membranes were blocked with skim milk (5%) for 1 hour, and immunoblotted with antibodies against NLRP3, IL-1β, mature IL-1β (Cell Signaling Technology Inc., Danvers, MA, USA), caspase 1 and β-actin (Santa Cruz Biotechnology Inc., Dallas, TX, USA) at 4° C. overnight. After washing with PBS supplemented with 0.1% of Tween 20, the membranes were treated with a peroxidase-conjugated anti-rabbit or anti-mouse IgG antibody (1:1,000) for 2 hours at room temperature. The SuperSignal West Pico ECL solution (Thermo Fisher Scientific, Inc.) was used to detect protein bands that were visualized on a ChemiDocm Touch Imaging System (Bio-Rad Laboratories).

[4] = test system: AD model mice (Aβ1-42 injected); test: Novel object recognition test in AD model; format: in vivo, C57BL/6 mice; conditions: vs vehicle-treated or untreated mice
Experimental: as §2
A novel object recognition test was performed in an open field box containing two identical objects. Animals were first familiarized with these identical objects for 2 minutes, and then one of the objects was replaced with a novel object, followed by reading for 5 minutes. The time spent with an identical object (tA) and the time spent with a novel object (tB) were calculated, and the recognition index ratio was calculated via the formula (tB/(tA+tB))×100.

NLRP3 [5] = molecular target: T6, NLRP3 (Homo sapiens, UniProt Q96P20); test: Inhibition of NLRP3 by IL-1β secretion level (ELISA); format: cell-based; conditions: PMA-differentiated THP-1, LPS (10 ng/mL) 4 hours, compound 1 hour, nigericin (10 μM) 1 hour
T6 construct: THP-1 cells (10^5/well) were differentiated with PMA (80 nM, 48 hours) in a 96-well plate; endogenous in cells; host or cells: PMA-differentiated, LPS-primed THP-1 cells
T6 sequence (Q96P20 whole entry): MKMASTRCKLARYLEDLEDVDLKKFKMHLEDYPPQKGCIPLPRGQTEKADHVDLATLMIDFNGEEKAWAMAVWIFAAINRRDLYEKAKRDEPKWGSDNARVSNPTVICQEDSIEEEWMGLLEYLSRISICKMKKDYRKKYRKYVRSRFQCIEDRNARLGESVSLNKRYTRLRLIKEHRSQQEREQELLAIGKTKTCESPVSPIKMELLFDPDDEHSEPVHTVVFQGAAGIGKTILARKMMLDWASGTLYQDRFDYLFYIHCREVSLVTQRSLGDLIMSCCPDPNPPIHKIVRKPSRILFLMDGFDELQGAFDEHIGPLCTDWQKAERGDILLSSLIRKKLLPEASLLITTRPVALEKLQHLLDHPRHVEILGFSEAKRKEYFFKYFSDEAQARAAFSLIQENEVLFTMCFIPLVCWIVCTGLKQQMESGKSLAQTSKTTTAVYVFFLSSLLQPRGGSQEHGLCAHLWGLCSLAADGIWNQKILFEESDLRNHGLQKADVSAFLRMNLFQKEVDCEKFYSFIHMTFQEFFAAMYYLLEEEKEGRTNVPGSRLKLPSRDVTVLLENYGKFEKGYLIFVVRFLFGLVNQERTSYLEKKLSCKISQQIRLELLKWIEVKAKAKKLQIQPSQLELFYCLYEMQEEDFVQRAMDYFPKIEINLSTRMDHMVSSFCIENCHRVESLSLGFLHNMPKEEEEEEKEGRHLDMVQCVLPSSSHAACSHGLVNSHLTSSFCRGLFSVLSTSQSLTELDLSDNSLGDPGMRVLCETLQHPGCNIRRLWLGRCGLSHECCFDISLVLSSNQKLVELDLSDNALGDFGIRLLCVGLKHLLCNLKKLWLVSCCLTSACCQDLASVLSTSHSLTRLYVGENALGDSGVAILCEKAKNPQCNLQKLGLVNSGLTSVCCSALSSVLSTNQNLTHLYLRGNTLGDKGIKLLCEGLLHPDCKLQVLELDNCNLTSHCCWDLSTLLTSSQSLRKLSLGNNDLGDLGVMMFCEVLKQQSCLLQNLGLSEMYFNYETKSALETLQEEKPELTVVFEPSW
Experimental: THP-1 cells (10^5/well) were differentiated with PMA (80 nM, 48 hours) in a 96-well plate (BD Biosciences). The differentiated macrophages were primed with LPS (10 ng/mL) for 4 hours. Thereafter, the cells were treated with each compound for 1 hour in a serum-free medium, followed by activation of NLRP3 by nigericin for an additional 1 hour. The supernatant was collected and the inhibition of human IL-1β secretion was analyzed using the Human IL-1β Uncoated ELISA Kit (Thermo Fisher Scientific, Inc.). A microplate spectrophotometer system (Molecular Devices) was employed to read absorbance in the plate.

[6] = NIC7 100 nmol/g intraperitoneally
[7] = donepezil 1 mg/kg intraperitoneally

Compound: CC1CC(=O)c2s/c(=N\C3CCCCC3)oc2C1 (centres unmarked) [BOT-4-one]
IC50 (NLRP3, NLRC4): 590 to 1280 nM

Compound: Cc1ccc(S(=O)(=O)/C=C/C#N)cc1 [Bay 11-7082]
IC50 (NLRP3, NLRC4): ~5000 nM

Compound: O=C(O)c1ccc(/C=C2/SC(=S)N(Cc3cccc(C(F)(F)F)c3)C2=O)cc1 [CY-09]
IC50 (NLRP3 [1]): ~5000 nM

Compound: O=[N+]([O-])/C=C/c1ccc2c(c1)OCO2 [MNS]
IC50 (NLRP3 [1]): ~2000 nM

inhibition at 10 min, 10 µM (CYP1A2): < 1% | inhibition at 10 min, 10 µM (CYP2C9): 34.2% | inhibition at 10 min, 10 µM (CYP3A4): < 1% | inhibition at 10 min, 10 µM (CYP2D6): 9.8% | inhibition at 10 min, 10 µM (CYP2C19): < 1% | Microsomal stability (% at 30 min) (Microsomal stability): Human: 19.7%
Compound: CC(=O)c1cccc(NC(=O)Nc2ccc3sc(NS(=O)(=O)c4ccc(C)cc4)nc3c2)c1 [NIC7, N-(5-(3-(3-acetylphenyl)ureido)benzo[d]thiazol-2-yl)-4-methylbenzenesulfonamide]
CYP enzyme selectivity of inhibition (CYP2C9): acted mainly on CYP2C9 enzyme and hardly acted on other types of CYP enzymes | body weight (Body weight in AD model): significantly increased | metabolic stability versus positive control compound (Microsomal stability): better half-life and stability than a positive control compound | Y-maze test, spatial working memory [2, 6]: spent more time in the novel arm | inhibition of IL-1β and caspase 1 (Western blot) [3]: inhibition | recognition index rate (novel object recognition test) [4, 6]: better | inhibition of IL-1β secretion caused by NLRP3 (NLRP3 [5]): highest potency; also recorded: significant inhibition

inhibition at 10 min, 10 µM (CYP1A2): < 1% | inhibition at 10 min, 10 µM (CYP2C9): 39.4% | inhibition at 10 min, 10 µM (CYP3A4): < 1% | inhibition at 10 min, 10 µM (CYP2D6): 9.1% | inhibition at 10 min, 10 µM (CYP2C19): 15.4% | Microsomal stability (% at 30 min) (Microsomal stability): Human: 49.5% | increase of amount of drug remaining after 30 minutes of metabolism compared to NIC7 (Microsomal stability; human liver microsomes): 29.8%
Compound: Cc1ccc(S(=O)(=O)Nc2nc3cc(NC(=O)NCc4ccccc4)ccc3s2)cc1 [NIC7w, N-(5-(3-benzylureido)benzo[d]thiazol-2-yl)-4-methylbenzenesulfonamide]
CYP enzyme selectivity of inhibition (CYP2C9): acted mainly on CYP2C9 enzyme and hardly acted on other types of CYP enzymes | metabolic stability versus positive control compound (Microsomal stability): better half-life and stability than a positive control compound | inhibition of IL-1β and caspase 1 (Western blot) [3]: inhibition | inhibition of IL-1β secretion caused by NLRP3 (NLRP3 [5]): most potent inhibition; also recorded: in a dose-dependent manner, more strongly and significantly than NIC7

Compound: CS(=O)(=O)CCC#N [OLT1177]
IC50 (NLRP3 [1]): ~1000 nM

Compound: COc1cc2c(cc1OC)C(=O)C(CC1CCN(Cc3ccccc3)CC1)C2 (centres unmarked) [donepezil, reference compound]
Y-maze test, spatial working memory [2, 7]: spent more time in the novel arm | recognition index rate (novel object recognition test) [4, 7]: better

Compound: NBC6
IC50 (NLRP3 [1]): ~574 nM
